Measurements: US10363239B2, “Method for inhibiting growth of cancer cells” (Pain Therapeutics, Inc., priority 2013, dated 2019)
Like-named read-outs stand apart in the source and are kept apart here.

Columns and labels:
[1] = target: FLNA pentapeptide of SEQ ID NO: 1 (Bn-VAKGL) (Homo sapiens, UniProt P21333); test: FITC-NLX-based FLNA screening assay (inhibition of FITC-naloxone binding to Bn-VAKGL on streptavidin plates); conditions: 10 nM FITC-NLX
[2] = tested on: mu opiate receptor (MOR); test: MOR agonist activity using [35S]GTPγS binding assay in striatal membranes; type: biochemical; conditions: for MOR agonist activity ([35S]GTPγS binding), FLNA-Binding Compound as Agonist 1 μM + BFNA: 1 μM compound + 1 μM β-funaltrexamine
Method in brief: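 Striatal membranes (200 μg) were preincubated 5 min at 30 °C in HEPES pH 7.5 with 100 mM NaCl, 1 mM MgCl2 and 0.5 nM [35S]GTPγS, then 5 min more with 0.1–10 μM compound. Gαo was immunoprecipitated and bound radioactivity counted by scintillation.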

[3] = read-out: Percent Binding Inhibition, FLNA-binding compound 0.01 μM
[4] = read-out: Percent Binding Inhibition, FLNA-binding compound 0.1 μM
[5] = read-out: Percent Binding Inhibition, FLNA-binding compound 1 μM
[6] = 0.1 μM compound relative to DAMGO
[7] = 1 μM compound + BFNA relative to DAMGO + BFNA
[8] = 1 μM compound relative to DAMGO
[9] = Series B, 0.1 μM compound, relative to DAMGO
[10] = Series B, 0.1 μM compound, [35S]GTPγS binding to Gαo, striatal membranes
[11] = Series B, 1 μM compound + 1 μM β-FNA
[12] = Series B, 1 μM compound + β-FNA, relative to DAMGO + BFNA
[13] = Series B, 1 μM compound, relative to DAMGO
[14] = Series B, 1 μM compound, [35S]GTPγS binding to Gαo, striatal membranes
[15] = Series C-1, 0.1 μM compound, relative to DAMGO
[16] = Series C-1, 0.1 μM compound, [35S]GTPγS binding to Gαo, striatal membranes
[17] = Series C-1, 1 μM compound + 1 μM β-FNA
[18] = Series C-1, 1 μM compound + β-FNA, relative to DAMGO + BFNA
[19] = Series C-1, 1 μM compound, relative to DAMGO
[20] = Series C-1, 1 μM compound, [35S]GTPγS binding to Gαo, striatal membranes

Compound | inhibition at 0.01 µM [1, 3] [%] | inhibition at 0.1 µM [1, 4] [%] | inhibition at 1 µM [1, 5] [%] | % DAMGO (0.1 μM) [2, 15] [%] | Concentration of FLNA-Binding Compound as Agonist 0.1 μM [2, 16] [%] | Concentration of FLNA-Binding Compound as Agonist 1 μM + BFNA [2, 17] [%] | % DAMGO + BFNA [2, 18] [%] | % DAMGO (1 μM) [2, 19] [%] | Concentration of FLNA-Binding Compound as Agonist 1 μM [2, 20] [%] | other results
CC1CCC(C(C)C)C(OCC(O)CN2CCCCC2C)C1 (stereo not drawn) [Compound A0007] | 39.2 | 46.2 | 52.9 |  |  |  |  |  |  | MOR agonist activity ([35S]GTPγS binding), FLNA-Binding Compound as Agonist 0.1 μM ([2]; 0.1 μM compound): 102.0%; % DAMGO (0.1 μM) [2, 6]: 68.3%; MOR agonist activity ([35S]GTPγS binding), FLNA-Binding Compound as Agonist 1 μM ([2]; 1 μM compound): 221.9%; MOR agonist activity ([35S]GTPγS binding), FLNA-Binding Compound as Agonist 1 μM + BFNA [2]: 40.4%; % DAMGO + BFNA [2, 7]: 152.5%; % DAMGO (1 μM) [2, 8]: 96.4%
CC1CCC(C(C)C)C(OCC(O)CN2CCN(CCN3CCCCC3)CC2)C1 (stereo not drawn) [Compound A0031] |  |  |  |  |  |  |  |  |  | inhibition at 0.01 µM ([1]; FLNA-binding compound 0.01 μM, read-out: Percent Binding Inhibition): 40.8%; inhibition at 0.1 µM ([1]; FLNA-binding compound 0.1 μM, read-out: Percent Binding Inhibition): 47.6%; inhibition at 1 µM ([1]; FLNA-binding compound 1 μM, read-out: Percent Binding Inhibition): 52.9%; MOR agonist activity ([35S]GTPγS binding), FLNA-Binding Compound as Agonist 0.1 μM ([2]; 0.1 μM compound): 178.2%; % DAMGO (0.1 μM) [2, 6]: 100.9%; MOR agonist activity ([35S]GTPγS binding), FLNA-Binding Compound as Agonist 1 μM ([2]; 1 μM compound): 297.0%; MOR agonist activity ([35S]GTPγS binding), FLNA-Binding Compound as Agonist 1 μM + BFNA [2]: 150.9%; % DAMGO + BFNA [2, 7]: 573.8%; % DAMGO (1 μM) [2, 8]: 116.8%
COc1ccc(C(=O)CC2c3c(cc4c(c3OC)OCO4)CC[N+]2(C)C)cc1C (stereo not drawn) [Compound B0021] | 32.5 | 43.1 | 47.6 |  |  |  |  |  |  | % DAMGO (0.1 μM) [2, 9]: 75.9%; MOR agonist activity, percent [35S]GTPγS binding at the stated compound concentration [2, 10]: 126.9%; MOR agonist activity, percent [35S]GTPγS binding at the stated compound concentration [2, 11]: 42.9%; % DAMGO + BFNA [2, 12]: 123.6%; % DAMGO (1 μM) [2, 13]: 104.7%; MOR agonist activity, percent [35S]GTPγS binding at the stated compound concentration [2, 14]: 256.4%
O=S(=O)(c1ccc(OC(F)(F)F)cc1)N1CCC2(CC1)OCCN2S(=O)(=O)c1ccc(OC(F)(F)F)cc1 [Compound C0006] | 41.6 | 46.8 | 51.8 | 70.6 | 121.5 | 4.6 | 7.2 | 73.8 | 204.0 | 
O=C(c1ccc([N+](=O)[O-])cc1)N1CCC2(CC1)OCCN2S(=O)(=O)c1ccc([N+](=O)[O-])cc1 [Compound C0022] | 34.5 | 37.6 | 43.9 | 113.5 | 194.3 | 13.4 | 25.7 | 123.2 | 328.7 | 
COc1ccc(CC(=O)CC2c3c(cc4c(c3OC)OCO4)CC[N+]2(C)C)c(OC)c1 (stereo not drawn) [Compound B0029] | 33.4 | 42.9 | 50.2 |  |  |  |  |  |  | % DAMGO (0.1 μM) [2, 9]: 89.4%; MOR agonist activity, percent [35S]GTPγS binding at the stated compound concentration [2, 10]: 171.9%; MOR agonist activity, percent [35S]GTPγS binding at the stated compound concentration [2, 11]: 17.6%; % DAMGO + BFNA [2, 12]: 40.1%; % DAMGO (1 μM) [2, 13]: 77.0%; MOR agonist activity, percent [35S]GTPγS binding at the stated compound concentration [2, 14]: 210.3%
O=S(=O)(c1ccc(C(F)(F)F)cc1)N1CCC2(CC1)OCCN2S(=O)(=O)c1ccc(C(F)(F)F)cc1 [Compound C0012] | 26.3 | 39.5 | 46.4 | 54.8 | 96.8 | 184.4 | 280.7 | 86.7 | 224.8 | 
